Laboratory results reported in patent US20240016777A1, “COMPOUNDS AND METHODS FOR TREATING VIRAL INFECTIONS” (priority 2020, published 2024).

biological target: SARS-CoV-2 M^pro (Severe acute respiratory syndrome coronavirus 2 (2019-nCoV) (SARS-CoV-2), UniProt P0DTD1); test: biochemical; conditions: not given

SMILES | Mpro inhibitory activity (comparison in words)
COc1ccc(-c2cc(=O)c3c(O)cc(O)cc3o2)cc1-c1c(O)cc(O)c2c(=O)cc(-c3ccc(O)cc3)oc12 [bilobetin] | comparable to amentoflavone
O=C1CC(c2ccccc2)Oc2cc(O)cc(O)c21 (centres unmarked) [Pinocembrin] | relatively poor inhibition

same assay, conditions: compound at 17 μM, duplicates, 20 min pre-incubation

SMILES | Activity (% enzyme activity by fluorescence relative to initial enzyme activity)
C=C(C)[C@H](CC=C(C)C)Cc1c(O)cc(O)c2c1O[C@H](c1ccc(O)cc1OC)CC2=O [Isokurarinone] | ++ (enzyme activity as indicated by fluorescence measurements ≥10% and <80%)

same assay, conditions: compound at 17 μM, duplicates, 20 min pre-incubation; read-out: Activity (% enzyme activity by fluorescence relative to initial enzyme activity)

SMILES | remaining activity at 17 µM
CC(C)=CCc1c(-c2ccc(O)cc2O)oc2c3c(cc(O)c2c1=O)OC(C)(C)C=C3 [Morusin] | 10 to 80%
CC(C)=CCc1cc(-c2coc3cc(O)cc(O)c3c2=O)cc(O)c1O [glycyrrhisoflavone] | > 80%
CC(C)=CCC/C(C)=C/Cc1c(-c2ccc(O)cc2O)oc2cc(O)cc(O)c2c1=O [5,7,2′,4′-Tetrahydroxy-3-geranylflavone] | 10 to 80%
CC(C)=CCc1c(O)ccc(C(=O)[C@@H]2C(c3c(O)cc(O)c4c(=O)c(CC=C(C)C)c(-c5ccc(O)cc5O)oc34)C=C(C)CC2c2ccc(O)cc2O)c1O (some centres unmarked) [Kuwanon H] | 10 to 80%
CC(C)=CCC/C(C)=C\Cc1c(O)cc(O)c2c1O[C@H](c1ccc(O)cc1O)CC2=O [sophoraflavanone C] | 10 to 80%
COc1cc(O)c(CC=C(C)C)c2c1C(=O)C[C@@H](c1ccc(O)cc1)O2 [Isoxanthohumol] | > 80%
CC(C)=CCc1cc([C@@H]2CC(=O)c3c(O)cc(O)c(CC=C(C)C)c3O2)c(O)cc1O [Euchrestaflavanone B] | 10 to 80%

same assay, conditions: compounds evaluated at 0.015-300 μM; read-out: IC50

SMILES | IC50
CC(C)=CCC/C(C)=C\Cc1c(O)cc(O)c2c1O[C@H](c1ccc(O)cc1O)CC2=O [sophoraflavanone C] | 63 µM
CC(C)=CCc1cc([C@@H]2CC(=O)c3c(O)cc(O)c(CC=C(C)C)c3O2)c(O)cc1O [Euchrestaflavanone B] | 96 µM

same assay, conditions: read-out: Activity (% enzyme activity by fluorescence relative to initial enzyme activity), compound at 17 μM, duplicates, 20 min pre-incubation

SMILES | remaining activity at 17 µM
C=C(C)[C@H](CC=C(C)C)Cc1c(O)cc(OC)c2c1O[C@H](c1ccc(O)cc1O)[C@@H](O)C2=O [Kushenol I] | > 80%
COc1cc([C@@H]2CC(=O)c3c(O)cc(O)c(CC=C(C)C)c3O2)c(O)cc1O [Kushenol W] | > 80%
COc1cc(O)c2c(=O)c(O)c(-c3ccc(O)cc3)oc2c1CC=C(C)C [Isoanhydroicaritin] | > 80%
CC(C)=CCc1c(O)cc(O)c2c(=O)c(O[C@@H]3O[C@@H](C)[C@H](O)[C@@H](O)[C@H]3O[C@@H]3OC[C@@H](O)[C@H](O)[C@H]3O)c(-c3ccc(O)cc3)oc12 [Ikarisoside F] | 10 to 80%
CC(C)=CCc1c(O)cc2oc(-c3ccc(O)cc3)c(O)c(=O)c2c1O [Licoflavonol] | > 80%
CC(C)=CC[C@]12Oc3cc(O)c([C@H]4C=C(C)C[C@H](c5ccc(O)cc5O)[C@H]4C(=O)c4cc(O)cc(O)c4)c(O)c3C(=O)[C@@]1(O)Oc1cc(O)ccc12 [Sanggenone C] | < 10%
COc1ccc(-c2oc3c(CC=C(C)C)c(O[C@@H]4O[C@H](CO)[C@@H](O)[C@H](O)[C@H]4O)cc(O)c3c(=O)c2O[C@@H]2O[C@@H](C)[C@H](O)[C@@H](O)[C@H]2O)cc1 [Icariin] | 10 to 80%
COc1ccc(-c2oc3c(CC=C(C)C)c(O)cc(O)c3c(=O)c2O[C@@H]2O[C@@H](C)[C@H](O)[C@@H](O)[C@H]2O)cc1 [Baohuoside I] | 10 to 80%
CC(C)=CCc1c(O)cc2oc(-c3ccc(O)cc3O)cc(=O)c2c1O [Artocarpesin] | > 80%
CC(C)=CCc1c(O)ccc2c1O[C@H](c1ccc(O)cc1)CC2=O [Isobavachin] | > 80%
COc1ccc(-c2oc3c(CC=C(C)C)c(O)cc(O)c3c(=O)c2O[C@@H]2O[C@@H](C)[C@H](OC(C)=O)[C@@H](O[C@@H]3O[C@H](COC(C)=O)[C@@H](O)[C@H](O)[C@H]3O)[C@H]2O)cc1 [Korepimedoside A] | 10 to 80%
COc1c(-c2ccc(O)c(O)c2)oc2c(C/C=C(\C)CCC=C(C)C)c(O)cc(O)c2c1=O [5,7,3′,4′-Tetrahydroxy-3-methoxy-8-geranylflavone] | > 80%
CC(C)=CCc1c(O)c(CC=C(C)C)c2occ(-c3ccc(O)c(O)c3)c(=O)c2c1O [6,8-Diprenylorobol] | > 80%
CC(C)=CCc1cc(-c2coc3cc(O)ccc3c2=O)ccc1O [Neobavaisoflavone] | 10 to 80%
CC(C)=CCc1c(O)c(CC=C(C)C)c2c(c1O)C(=O)C[C@@H](c1ccc(O)cc1)O2 [6,8-Diprenylnaringenin] | > 80%
CC(C)=CCc1c(O)cc(O)c2c1O[C@H](c1ccccc1)CC2=O [Glabranin] | > 80%
CC(C)=CCC/C(C)=C/Cc1c(O)ccc(C2CC(=O)c3c(O)cc(O)cc3O2)c1O (centres unmarked) [sanggenol A] | 10 to 80%
CC(C)=CCc1cc(-c2oc3cc(O)cc(O)c3c(=O)c2O)ccc1O [Isolicoflavonol] | 10 to 80%
COc1cc2c(c(OC)c1CC=C(C)C)C[C@H](c1ccc(O)cc1O)CO2 [Glyasperin D] | 10 to 80%
COc1c(O)cc2oc(-c3cc(CC=C(C)C)c4c(c3)CC(O)C(C)(C)O4)c(OC)c(=O)c2c1O (centres unmarked) [Dodovisone A] | > 80%
CC(C)=CCCC1(C)C=Cc2c(ccc([C@@H]3CC(=O)c4c(O)cc(O)cc4O3)c2O)O1 (some centres unmarked) [Sanggenon N] | > 80%
CC(C)=CCc1c2c(c(O)c3c(=O)c(-c4ccc(O)c(O)c4)coc13)C=CC(C)(C)O2 [Auriculasin] | > 80%
C=C(C)[C@H](CC=C(C)C)Cc1c(O)cc(OC)c2c1O[C@H](c1ccc(O)cc1O)CC2=O [Kurarinone] | > 80%
COc1c(O)cc2oc(-c3ccc(O)c(CC=C(C)C)c3)c(OC)c(=O)c2c1O [5,7,4-Trihydroxy-3,6-dimethoxy-3-prenylflavone] | > 80%
CC(C)=CCCC1(C)CCc2c(cc(O)c3c2OC(c2ccc(O)cc2O)CC3=O)O1 (centres unmarked) [Sanggenol L] | > 80%

SMILES | remaining activity at 17 µM
C=C(C)[C@H](CCC(C)(C)O)Cc1c(O)cc(OC)c2c1O[C@H](c1ccc(O)cc1O)[C@H](O)C2=O [Kushenol K] | > 80%
CC(C)=CCc1c2c(c(O)c3c(=O)c4c(oc13)-c1cc(O)c(O)cc1OC4C=C(C)C)C=CC(C)(C)O2 (centres unmarked) [Cycloheterophyllin] | > 80%
C=C(C)C(O)Cc1c(O)c(CC=C(C)C)c2occ(-c3ccc(O)cc3)c(=O)c2c1O (centres unmarked) [Isoerysenegalensein E] | > 80%
COc1cc2c(cc1CC=C(C)C)C(=O)C[C@@H](c1ccc(O)cc1)O2 [Bavachinin] | > 80%
CC(C)=CCC/C(C)=C/Cc1c(O)cc2c(c1O)C(=O)C[C@@H](c1ccc(O)cc1)O2 [6-Geranylnaringenin] | > 80%
CC(C)=CCc1cc(-c2oc3c(CC=C(C)C)c(O)cc(O)c3c(=O)c2O)ccc1O [Broussoflavonol F] | > 80%
COc1ccc([C@@H]2CC(=O)c3c(O)cc(O)cc3O2)cc1CC=C(C)C [4′-O-Methyllicoflavanone] | 10 to 80%
CC(C)=CCc1c(O[C@@H]2O[C@H](CO)[C@@H](O)[C@H](O)[C@H]2O)cc(O)c2c1O[C@H](c1ccc(O)cc1)CC2=O [Flavaprin] | > 80%
CC(C)=CCc1c(O)c(CC=C(C)C)c2occc(=O)c2c1O [Eriosemation] | > 80%
COc1ccc(-c2oc3c(CC=C(C)C)c(O)cc(O)c3c(=O)c2O[C@@H]2O[C@@H](C)[C@H](O)[C@@H](O)[C@H]2O[C@@H]2O[C@H](CO)[C@@H](O)[C@H](O)[C@H]2O)cc1 [Sagittatoside A] | > 80%
CC(C)=CCc1c(O)c(C)c(O)c2c1O[C@H](c1ccc(O)cc1)CC2=O [6-Methyl-8-prenylnaringenin] | < 10%
CC(C)=CCc1cc(-c2coc3cc(O)c(CC=C(C)C)c(O)c3c2=O)cc(O)c1O [Imbricataflavone A] | > 80%
COc1c(-c2cc(O)c(O)c(CC=C(C)C)c2)oc2c(CC=C(C)C)c(O)cc(O)c2c1=O [5,7,3′,4′-Tetrahydroxy-3-methoxy-8,5′-diprenylflavone] | > 80%
CC(C)=CCc1c([C@@H]2CCc3ccc(O)cc3O2)cc2c(c1O)OC(C)(C)C=C2 [Kazinol B] | > 80%
COc1ccc(-c2oc3c(CC=C(C)C)c(O)cc(O)c3c(=O)c2O)cc1 [Icaritin] | > 80%
CC(C)=CCc1c(O)cc(O)c2c(=O)c(O)c(-c3ccc(O)cc3)oc12 [8-Prenylkaempferol] | > 80%
COc1ccc(-c2oc3c(CC=C(C)C)c(O)cc(O)c3c(=O)c2O[C@@H]2O[C@@H](C)[C@H](O)[C@@H](OC(C)=O)[C@H]2O[C@@H]2O[C@H](CO)[C@@H](O)[C@H](O)[C@H]2O)cc1 [Sagittatoside C] | > 80%
COc1c(-c2ccc(O)cc2)oc2cc(O)c(CC=C(C)C)c(O)c2c1=O [Topazolin] | > 80%
C=C(C)[C@H](CC=C(C)C)Cc1c(O)cc(OC)c2c1O[C@H](c1ccc(O)cc1OC)CC2=O [2′-methoxykurarinone] | > 80%
COc1ccc(-c2oc3c(CC=C(C)C)c(O[C@@H]4O[C@H](CO)[C@@H](O)[C@H](O)[C@H]4O)cc(O)c3c(=O)c2O[C@@H]2O[C@@H](C)[C@H](O)[C@@H](O[C@@H]3O[C@H](CO)[C@@H](O)[C@H](O)[C@H]3O)[C@H]2O)cc1 [Epimedin A1] | > 80%
O=c1c(-c2ccc(O)cc2O)coc2cc(O)cc(O)c12 [2′-hydroxygenistein] | > 80%
CC(C)=CCc1c(O)cc2oc(-c3ccc(O)cc3)cc(=O)c2c1O [4′,5,7-Trihydroxy-6-prenylflavone] | > 80%
CC(C)=CCc1cc([C@@H]2CC(=O)c3c(O)cc(O)c(CC=C(C)C)c3O2)cc(CC=C(C)C)c1O [5-Hydroxysophoranone] | > 80%
COc1cc2c(c(OC)c1CC=C(C)C)C[C@H](c1ccc(O)c(CC=C(C)C)c1O)CO2 [Licorisoflavan A] | 10 to 80%
C=C(C)[C@H](CCC(C)(C)O)Cc1c(O)cc(OC)c2c1O[C@H](c1ccc(O)cc1O)CC2=O [Kurarinol] | > 80%
